Data published in ChEMBL document CHEMBL1201862, “PubChem BioAssay data set” (2004).
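Cells were grown in 96-well plates and exposed to each compound for 48 hours at five concentrations; endpoints were interpolated linearly between bracketing concentrations, or set to the highest concentration if not reached. Here, GI50 denotes the concentration required for 50% inhibition of growth.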 Active and inactive are the calls of the source. Rule as the data show it: active = GI50 up to about 1.1 µM and inactive = higher.

Experiments:
Experiment in all cases: DTP human tumour cell line panel, 48 h
HCC 2998 = tested on: HCC 2998
OVCAR-3 = tested on: OVCAR-3
NCI-H23 = tested on: NCI-H23
SF-268 = tested on: SF-268
COLO 205 = tested on: COLO 205
A549 = tested on: A549
OVCAR-8 = tested on: OVCAR-8
MOLT-4 = tested on: MOLT-4
NCI-H226 = tested on: NCI-H226
SN12C = tested on: SN12C
SK-MEL-5 = tested on: SK-MEL-5
NCI-H460 = tested on: NCI-H460
HL-60 = tested on: HL-60
UO-31 = tested on: UO-31
OVCAR-5 = tested on: OVCAR-5
RXF 393 = tested on: RXF 393
SNB-19 = tested on: SNB-19
SNB-75 = tested on: SNB-75
SF-295 = tested on: SF-295
SK-MEL-2 = tested on: SK-MEL-2

Measured: GI50

COc1cc[n+](C)cc1
inactive: HCC 2998 > 100 µM | OVCAR-3 > 100 µM | NCI-H23 > 100 µM | SF-268 > 100 µM | COLO 205 > 100 µM | A549 > 100 µM | OVCAR-8 > 100 µM | MOLT-4 > 100 µM | NCI-H226 > 100 µM | SN12C > 100 µM | SK-MEL-5 > 100 µM | NCI-H460 > 100 µM | HL-60 > 100 µM | UO-31 > 100 µM | OVCAR-5 > 100 µM | RXF 393 > 100 µM | SNB-19 > 100 µM | SNB-75 > 100 µM | SF-295 > 100 µM | SK-MEL-2 > 100 µM
